Measured values from PMC3029338, “Highly Selective End-Tagged Antimicrobial Peptides Derived from PRELP” (PLoS ONE, 2011).
Ends that are not written are not given here.

Legend:
[1] = target: T1, P. aeruginosa elastase (Pseudomonas aeruginosa, UniProt P14756); type: in vitro ADME; details: 37°C, in words; for stability against P. aeruginosa elastase: 1 µg peptide, 0.1 µg enzyme, 30 µl, 3 hours (legend: 4 h), SDS-PAGE Coomassie; for stability against P. aeruginosa elastase, extended digestion: different times up to 18 h, SDS-PAGE
T1 construct: purchased Calbiochem (La Jolla, USA)
Method: […] The materials were analyzed on 16.5% precast sodium dodecyl sulfate polyacrylamide (SDS-PAGE) Tris-Tricine gels (BioRad, Hercules, USA) and analyzed after staining with Coomassie Blue R-250 (Merck, Darmstadt, Germany).

[2] = target: T2, S. aureus aureolysin (Staphylococcus aureus, UniProt P81177); experiment: Protease sensitivity assay (SDS-PAGE); type: in vitro ADME; details: 1 µg peptide, 0.1 µg enzyme, 30 µl, 37°C, 3 hours (legend: 4 h), SDS-PAGE Coomassie; in words
T2 construct: purchased BioCol GmbH (Potsdam, Germany)
Method: (§1) For evaluation of sensitivity to bacterial and endogenous proteases, peptides (1 µg) were incubated at 37°C with S. aureus aureolysin (0.1 µg, 25000 units/mg), S. aureus V8 proteinase (0.1 µg, 2000 mU), both from BioCol GmbH (Potsdam, Germany), human neutrophil elastase (0.4 µg, 29 units/mg; Calbiochem (La Jolla, USA)) or P. aeruginosa elastase (0.1 µg, 261 units/mg) (Calbiochem, La Jolla, USA) in a total volume of 30 µl for 3 hours. The materials were analyzed on 16.5% precast sodium dodecyl sulfate polyacrylamide (SDS-PAGE) Tris-Tricine gels (BioRad, Hercules, USA) and analyzed after staining with Coomassie Blue R-250 (Merck, Darmstadt, Germany).

[3] = target: T3, S. aureus V8 proteinase (Staphylococcus aureus, UniProt P0C1U8); experiment: Protease sensitivity assay (SDS-PAGE); type: in vitro ADME; details: 1 µg peptide, 0.1 µg enzyme, 30 µl, 37°C, 3 hours (legend: 4 h), SDS-PAGE Coomassie; in words
T3 construct: purchased BioCol GmbH (Potsdam, Germany)
Method: as §1

[4] = target: T4, human neutrophil elastase (Homo sapiens, UniProt P08246); experiment: Protease sensitivity assay (SDS-PAGE); type: in vitro ADME; details: 1 µg peptide, 0.4 µg enzyme, 30 µl, 37°C, 3 hours (legend: 4 h), SDS-PAGE Coomassie; in words
T4 construct: purchased Calbiochem (La Jolla, USA)
Method: as §1

[5] = tested on: human erythrocytes in 50% citrate blood with S. aureus or P. aeruginosa; details: peptide 120 µM (highest dose), 1 hour 37°C, in words
Method: For analysis of peptide-induced permeabilization of human erythroytes, EDTA-, or citrate-blood was drawn from healthy volunteers, [51], centrifuged at 800 g for 10 min, and plasma and buffy coat were removed. For experiments using EDTA-blood, [51] erythrocytes were washed three times and resuspended to 5% in PBS, pH 7.4. For experiments in 50% blood, citrate-blood was diluted (1∶1) with PBS. The cells were then incubated with end-over-end rotation for 1 h at 37°C in the presence of peptides (60 µM). 2% Triton X-100 (Sigma-Aldrich, St. Louis, USA) served as positive control. The samples were then centrifuged at 800 g for 10 min. The absorbance of hemoglobin release was measured at 540 nm and is expressed as % of TritonX-100 induced hemolysis. In the experiments with blood infected by bacteria, citrate-blood was diluted (1∶1) with PBS. The cells were then incubated with end-over-end rotation for 1 h at 37°C in the presence of peptides (60 and 120 µM) and S. aureus (2×10^8 cfu/ml) or P. aeruginosa (2×10^8 cfu/ml) bacteria. For evaluation of hemolysis, samples were then processed as above. Results given represent mean values from triplicate measurements.

[6] = tested on: erythrocytes; details: cited from earlier work
From the text: (§2) Considering the increasing resistance problems against conventional antibiotics, AMPs have recently emerged as potential therapeutic candidates in the above conditions. For example, the indolicidin-derived peptide omiganan is currently being evaluated in Phase III clinical trials for treatment of catheter-related infections. However, the use of AMPs in this context is challenging, as bacteria are able to excrete proteolytic enzymes, [38], and in the case of P. aeruginosa also AMP-scavenging exopolysaccharides, as a defense against AMPs.

[7] = tested on: P. aeruginosa; details: in words; cited from earlier work
From the text: as §2

[8] = tested on: S. aureus; details: in words; cited from earlier work
From the text: as §2

[9] = tested on: HT2001254 Staphylococcus aureus (MRSA) – PVL positive; type: cell-based
Method: (§3) In order to determine the minimal inhibitory concentration (MIC) for a given peptide and bacteria, we used a standardized dilution method according to NCSLA guidelines. In brief, fresh overnight colonies were suspended to a turbidity of 0.5 units and further diluted in Mueller-Hinton broth (MH) (Becton Dickinson). For determination of MIC, peptides were dissolved in water at concentration 10 times higher than the required range by serial dilutions from a stock solution. Ten µl of each concentration was added to each corresponding well of a 96-well microtiter plate (polypropylene, Costar Corp.) and 90 µl of bacteria (1×10^5) in MH medium added. The plate was incubated at 37°C for 16–18 h. MIC was considered as the lowest concentration of peptide where no visual growth of bacteria was detected. Additional MIC determinations presented in Table 2 were performed using cation-adjusted MH broth at Quotient Bioresearch Ltd., Fordham, United Kingdom.

[10] = tested on: Staphylococcus saprophyticus – antibiotic susceptible clinical isolate; type: cell-based
Method: as §3

[11] = tested on: Staphylococcus aureus - teicoplanin-intermediate clinical isolate; type: cell-based
Method: as §3

[12] = tested on: Staphylococcus haemolyticus – antibiotic susceptible clinical isolate; type: cell-based
Method: as §3

[13] = tested on: EMRSA1 Staphylococcus aureus (MRSA) – SSCmec type 3; type: cell-based; details: EMRSA1 – SSCmec type 3
Method: as §3

[14] = tested on: Staphylococcus epidermidis– methicillin-resistant clinical isolate; type: cell-based
Method: as §3

[15] = tested on: Escherichia coli - ESBL - TEM; type: cell-based
Method: as §3

[16] = tested on: EMRSA3 Staphylococcus aureus (MRSA) – SSCmec type 1; type: cell-based; details: EMRSA3 – SSCmec type 1
Method: as §3

[17] = tested on: Group C Streptococcus – macrolide-resistant clinical isolate; type: cell-based
Method: as §3

[18] = tested on: Pseudomonas aeruginosa - multi-drug resistant clinical isolate; type: cell-based
Method: as §3

[19] = tested on: EMRSA16 Staphylococcus aureus (MRSA) – SSCmec type 2; type: cell-based; details: EMRSA16 – SSCmec type 2
Method: as §3

[20] = tested on: Group G Streptococcus – antibiotic-susceptible clinical isolate; type: cell-based
Method: as §3

[21] = tested on: Staphylococcus aureus ATCC 29213 – antibiotic-susceptible type strain; type: cell-based
Method: as §3

[22] = tested on: Staphylococcus aureus ATCC 43300 – methicillin-resistant type strain; type: cell-based
Method: as §3

[23] = tested on: Streptococcus pyogenes – Macrolide (M-type) resistance clinical isolate; type: cell-based
Method: as §3

[24] = tested on: Escherichia coli - ESBL - SHV; type: cell-based
Method: as §3

[25] = tested on: Streptococcus pyogenes – antibiotic-susceptible clinical isolate; type: cell-based
Method: as §3

[26] = tested on: Staphylococcus aureus – methicillin-resistant clinical isolate; type: cell-based
Method: as §3

[27] = tested on: Streptococcus pyogenes – ATCC 19615; type: cell-based
Method: as §3

[28] = tested on: Group G Streptococcus – macrolide-resistant clinical isolate; type: cell-based
Method: as §3

[29] = tested on: Pseudomonas aeruginosa ATCC 27853 - antibiotic-susceptible type strain; type: cell-based
Method: as §3

[30] = tested on: Staphylococcus epidermidis – antibiotic susceptible clinical isolate; type: cell-based
Method: as §3

[31] = tested on: EMRSA15 Staphylococcus aureus (MRSA) – SSCmec type 4; type: cell-based; details: EMRSA15 – SSCmec type 4
Method: as §3

[32] = tested on: Escherichia coli ATCC 35218 - β-lactamase positive type strain; type: cell-based
Method: as §3

[33] = tested on: Staphylococcus aureus - multi-drug-resistant clinical isolate; type: cell-based
Method: as §3

[34] = tested on: Escherichia coli ATCC 25922 - antibiotic-susceptible type strain; type: cell-based
Method: as §3

[35] = tested on: Group C Streptococcus – antibiotic-susceptible clinical isolate; type: cell-based
Method: as §3

[36] = tested on: MU50 Staphylococcus aureus (MRSA) – VISA type strain; type: cell-based
Method: as §3

[37] = tested on: Escherichia coli - multi-drug resistant clinical isolate; type: cell-based
Method: as §3

[38] = tested on: Pseudomonas aeruginosa – Liverpool genotype LES 431; type: cell-based
Method: as §3

[39] = tested on: Escherichia coli - ESBL - CTXM; type: cell-based
Method: as §3

[40] = tested on: Streptococcus pyogenes – Macrolide (MLS) resistant clinical isolate; type: cell-based
Method: as §3

T2 sequence (P81177 209-509): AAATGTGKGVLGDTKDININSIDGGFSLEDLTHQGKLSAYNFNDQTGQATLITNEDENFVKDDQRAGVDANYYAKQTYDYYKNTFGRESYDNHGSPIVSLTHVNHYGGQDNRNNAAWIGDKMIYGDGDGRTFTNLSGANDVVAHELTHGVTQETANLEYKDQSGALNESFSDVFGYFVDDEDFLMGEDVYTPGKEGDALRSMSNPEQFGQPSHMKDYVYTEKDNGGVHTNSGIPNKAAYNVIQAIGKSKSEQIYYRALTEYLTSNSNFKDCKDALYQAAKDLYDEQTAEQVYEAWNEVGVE
T1 sequence (P14756 198-498): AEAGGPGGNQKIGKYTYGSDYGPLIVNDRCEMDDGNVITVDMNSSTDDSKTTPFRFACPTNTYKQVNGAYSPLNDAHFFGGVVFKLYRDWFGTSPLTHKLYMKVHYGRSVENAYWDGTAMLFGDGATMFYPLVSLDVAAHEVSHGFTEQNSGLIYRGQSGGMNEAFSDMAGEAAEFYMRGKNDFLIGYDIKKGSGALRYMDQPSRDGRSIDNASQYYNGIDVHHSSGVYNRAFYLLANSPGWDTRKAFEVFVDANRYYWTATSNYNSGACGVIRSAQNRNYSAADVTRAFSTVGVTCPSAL
T3 sequence (P0C1U8 69-336): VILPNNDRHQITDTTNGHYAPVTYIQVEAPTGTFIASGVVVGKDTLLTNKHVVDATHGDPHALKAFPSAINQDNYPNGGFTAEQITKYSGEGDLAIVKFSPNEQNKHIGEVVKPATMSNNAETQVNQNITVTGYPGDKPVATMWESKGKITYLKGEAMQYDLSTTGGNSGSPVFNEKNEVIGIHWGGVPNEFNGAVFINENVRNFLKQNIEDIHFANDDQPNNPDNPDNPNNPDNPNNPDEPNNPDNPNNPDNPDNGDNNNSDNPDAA
T4 sequence (P08246 30-267): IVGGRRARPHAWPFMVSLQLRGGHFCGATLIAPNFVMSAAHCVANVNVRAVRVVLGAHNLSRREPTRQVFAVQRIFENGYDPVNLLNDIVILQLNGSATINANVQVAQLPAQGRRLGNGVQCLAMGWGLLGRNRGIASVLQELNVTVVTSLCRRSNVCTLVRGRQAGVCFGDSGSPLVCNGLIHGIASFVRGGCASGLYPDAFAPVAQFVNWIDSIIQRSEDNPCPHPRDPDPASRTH

Question: With `CC[C@H](C)[C@H](NC(=O)[C@H](CCCCN)NC(=O)[C@H](CCC(=O)O)NC(=O)[C@H](CCCCN)NC(=O)[C@H](CO)NC(=O)[C@H](CCCCN)NC(=O)[C@H](CCCNC(=N)N)NC(=O)[C@H](Cc1ccccc1)NC(=O)[C@H](Cc1ccccc1)NC(=O)[C@H](CC(=O)O)NC(=O)CNC(=O)[C@H](CC(C)C)NC(=O)[C@@H](N)CC(C)C)C(=O)NCC(=O)N[C@@H](CCCCN)C(=O)N[C@@H](CCC(=O)O)C(=O)N[C@@H](Cc1ccccc1)C(=O)N[C@@H](CCCCN)C(=O)N[C@@H](CCCNC(=N)N)C(=O)N[C@H](C(=O)N[C@H](C(=O)N[C@@H](CCC(N)=O)C(=O)N[C@@H](CCCNC(=N)N)C(=O)N[C@H](C(=O)N[C@@H](CCCCN)C(=O)N[C@@H](CC(=O)O)C(=O)N[C@@H](Cc1ccccc1)C(=O)N[C@@H](CC(C)C)C(=O)N[C@@H](CCCNC(=N)N)C(=O)N[C@@H](CC(N)=O)C(=O)N[C@@H](CC(C)C)C(=O)N[C@H](C(=O)N1CCC[C@H]1C(=O)N[C@@H](CCCNC(=N)N)C(=O)N[C@H](C(=O)N[C@@H](CCC(=O)O)C(=O)N[C@@H](CO)C(=O)O)[C@@H](C)O)C(C)C)[C@@H](C)CC)C(C)C)[C@@H](C)CC` [reference compound] as the molecule, how does the “stability against P. aeruginosa elastase” value [1] read?
Answer: The value was “extensively degraded”.

Question: What about the “stability against S. aureus aureolysin” value [2] of the same molecule?
Answer: The value was “extensively degraded”.

Question: And the “stability against S. aureus V8 proteinase” value [3]?
Answer: Its value is “extensively degraded”.

Question: What about the “stability against human neutrophil elastase” value [4] of the same molecule?
Answer: Its value is “extensively degraded”.

Question: What about the “hemolysis in human blood infected by bacteria” value [5] of the same molecule?
Answer: Its value is “significant concomitant hemolysis”.

Question: For GRRPRPRPRPWWWW-NH2 [GRRPRPRPRPWWWW-NH2], which “stability against P. aeruginosa elastase” value [1] is on record?
Answer: Its value is “largely unaffected”.

Question: What about the “stability against S. aureus aureolysin” value [2] of the same molecule?
Answer: The value was “largely unaffected”.

Question: And the “stability against S. aureus V8 proteinase” value [3]?
Answer: Its value is “largely unaffected”.

Question: With “ILRWPWWPWRRK-NH2 [ILRWPWWPWRRK-NH2, reference compound]” as the molecule, how does the “stability against P. aeruginosa elastase, extended digestion” value [1] read?
Answer: The value was “degraded during extended digestion”.

Question: With “QPTRRPRPGTGPGRRPRPRPRP [QPT22, PRELP-derived peptide of earlier work]” as the molecule, how does the hemolytic activity [6] read?
Answer: The hemolytic activity was “no hemolytic activity”.

Question: And the antimicrobial effects [7]?
Answer: The antimicrobial effects was “exert antimicrobial effects”.

Question: What about the antimicrobial effects [8] of the same molecule?
Answer: The antimicrobial effects was “exert antimicrobial effects”.

Question: What does the source list for RRPRPRPRPWWWW-NH2 [RRPRPRPRPWWWW-NH2]?
Answer: stability against P. aeruginosa elastase [1]: largely unaffected; stability against P. aeruginosa elastase, extended digestion [1]: maintained stability; stability against S. aureus aureolysin [2]: largely unaffected; stability against S. aureus V8 proteinase [3]: largely unaffected; MIC [9]: 32 µg/mL; MIC [10]: 64 µg/mL; MIC [11]: 32 µg/mL; MIC [12]: 8 µg/mL; MIC [13]: 32 µg/mL; MIC [14]: 8 µg/mL; MIC [15]: 16 µg/mL; MIC [16]: 16 µg/mL; MIC [17]: 8 µg/mL; MIC [18]: 128 µg/mL; MIC [19]: 32 µg/mL; MIC [20]: 32 µg/mL; MIC [21]: 16 µg/mL; MIC [22]: 16 µg/mL; MIC [23]: 16 µg/mL; MIC [24]: 32 µg/mL; MIC [25]: 32 µg/mL; MIC [26]: 32 µg/mL; MIC [27]: 16 µg/mL; MIC [28]: 16 µg/mL; MIC [29]: 64 µg/mL; MIC [30]: 8 µg/mL; MIC [31]: 16 µg/mL; MIC [32]: 16 µg/mL; MIC [33]: 32 µg/mL; MIC [34]: 16 µg/mL; MIC [35]: 8 µg/mL; MIC [36]: 32 µg/mL; MIC [37]: 16 µg/mL; MIC [38]: 128 µg/mL; MIC [39]: 16 µg/mL; MIC [40]: 16 µg/mL; hemolysis in human blood infected by bacteria [5]: no accompanying hemolysis
